Measurements taken from US20260373226A1, “METHODS AND COMPOSITIONS FOR THE TREATMENT OF NEURODEGENERATIVE DISEASE” (Stealth BioTherapeutics Inc., priority 2022, published 2026).

How the values were obtained:
[1] = test system: models of neurodegeneration; assay: In vitro effect concentration (in vitro-in vivo correlation); assay type: cell-based; settings: FIG. 3A
Excerpt: See Guatam M., Platform presentation. NEALS, 2022. […] See Keefe, et al. (2019); Gautam, et al. (2022); Guatam, et al. (2021). Gautam, et al., SBT-272 improved mitochondria structure and function and preserved upper motor neurons with TDP-43 pathology, Platform poster presentation, presented at NEALS poster session (2022); Bido, et al. (2021); Silva, et al. (2022); and Zariwala, et al., Effects of the mitochondria-targeting small molecule SBT-272 in the R6/2 transgenic mice of Huntington's Disease, Poster presented at Keystone Symposia poster Session, 2022.

[2] = Steady state PK in plasma, CSF, brain cortex after 10 daily s.c. doses in nonhuman primates; assay type: in vivo, cynomolgus monkey
Method: Pharmacokinetic profile of SBT-272 in nonhuman primate plasma, CSF, and brain. The objective of this study was to determine the pharmacokinetic profile of SBT-272 in CSF and plasma when delivered by subcutaneous (SC) injection for 10 days to cynomolgus monkeys. SBT-272 solution was administered daily by SC injection for 10 days. The following parameters and endpoints were evaluated in this study: mortality, clinical observations, body weights, pharmacokinetic samples (CSF and plasma), and selected tissue collection. There was no mortality during the study. […] Additional details regarding the experimental protocol are provided below.
Test System. Details Regarding the Test System are Provided Below: • Species: Nonhuman primate • Strain/Breed: Cynomolgus monkey • Animal Condition: Non-naïve • Animal Procurement Method: In-house colony • Animal Supplier: Charles River Laboratories • Animal Supplier Location: 531 Boul des Prairies, Laval, QC H7V 1B7, Canada • Animal Origin: Asia • Number of Males: 3 • Age at the Initiation of Dosing: 18 to 60 months • Weight at the Initiation of Dosing: 1.4 to 5.0 kg
Study design. The study design is described in Table 9.
• Route of Administration: Subcutaneous injection into the scapular and mid-dorsal areas • Treatment Frequency: Daily • Treatment Duration: 10 days • Method: The first day of dosing is designated as Day 1. Dose formulations are allowed to warm up at ambient temperature for at least 30 minutes prior to dosing, as appropriate. The animals are temporarily restrained for dose administration and are not be sedated. The volume for each dose is administered over 1 (preferred) or 2 (as necessary) separate injections within the designated area. Injection sites are rotated daily (see FIG. 4B). If a designated subcutaneous test site is not available for a given animal on any day, then the next available test site in the rotation should be used for dosing. The injection area is marked as frequently as required to allow appropriate visualization of administration sites. Hair may be clipped or shaved if required to improve visualization of the injection sites. On the last injection occasion for each quadrant, the last site of injection is circled, and the circled site is collected at necropsy.
CSF Sample Processing. CSF samples re processed and stored within 1 hour of collection. Following each CSF collection, the sample is visually inspected, and the appearance is recorded. Samples are maintained on wet ice prior to and after centrifugation. Samples are centrifuged for 5 minutes in a refrigerated centrifuge (set to maintain 4 °C) at 2000 g RCF within 1 hour of collection. The resultant supernatant is collected within 30 minutes (as quickly as possible) of centrifugation and will be visually inspected; the appearance of the supernatant and any traces of blood in the pellet re recorded. Precipitate (if any) is discarded. CSF samples are separated into 2 approximately 100 μL equal aliquots into uniquely labelled low protein binding polypropylene tubes each containing 10 μL of 5% (v/v) phosphoric acid aqueous solution. Any remaining CSF will be transferred into a 3rd low protein binding polypropylene tube containing a volume of 5% (v/v) phosphoric acid solution adjusted to result in a 1:10 ratio of acid solution: CSF. All samples are placed on dry ice and transferred to a freezer set to maintain −70 °C.
Plasma Sample Processing. […]

Cc1cc(O)cc(C)c1C[C@H](NC(=O)[C@H](N)CCCNC(=N)N)C(=O)N[C@@H](CCCCN)c1nc(Cc2ccccc2)no1 [SBT-272, (R)-2-amino-N—((S)-1-(((S)-5-amino-1-(3-benzyl-1,2,4-oxadiazol-5-yl)pentyl)amino)-3-(4-hydroxy-2,6-dimethylphenyl)-1-oxopropan-2-yl)-5-guanidinopentanamide]
optimal in vitro effects, concentration [1]: 10 to 100 nM
plasma:CSF ratio ([2]; cynomolgus monkey, 5 mg/kg s.c., 10 daily doses): 6.40
brain:CSF ratio ([2]; cynomolgus monkey, brain (cortex), 5 mg/kg s.c., 10 daily doses): 328
Kp ([2]; in vivo, sc, cynomolgus monkey, brain (cortex), 5 mg/kg s.c., 10 daily doses, read-out: brain:plasma ratio): 51
brain drug concentration versus predictions based on rodent studies ([2]; nonhuman primate, FIGS. 5A-5B): met predictions based on rodent studies
correlation between species in steady state brain concentration at trough ([2]; rat and nonhuman primate, repeated SC dosing): excellent correlation between species in steady state brain concentration at trough
